Measured values reported in patent publication US20200384072A1, “THERAPY OF IONIZING RADIATION-INDUCED DISORDERS” (SCK-CEN, priority 2019, published 2020).

Experiments:
[1] = test system: RBE4 cells; test: γ-H2AX counts after local 3×3 mm X-ray irradiation (irradiated and bystander zones), RBE4 cells; format: cell-based, rat; settings: 1 Gy, 3 h post-irradiation, Cbx 50 μM, Gap26 161 μM, TAT-Gap19 200 μM, Xestospongin C 5 μM
Protocol: A defined area of the cell culture dishes were exposed to X-rays (1Gy or 20 Gy) by using a small animal radiation research platform (SARRP, Xstrahl, 220 kV, 13 mA), making use of a 3×3 mm collimator. Whole dish irradiation was done using a 10×10 cm broad-beam collimator, while localized Irradiation was performed with a 3×3 mm collimator. A Gafchromic RTQA2 film, with a sensitivity of 0.02 Gy, was placed underneath the cell dishes in order to delineate the irradiated zone.
Cells were fixed for 25 min with 4% formaldehyde (VWR) and blocked for 30 min with blocking buffer (5% normal goat serum, 1% bovine serum albumin (BSA), 0.2% Triton X-100 in PBS D+). Overnight incubation with primary antibody (1/500 anti-γ-H2AX in dilution buffer, 1/10 blocking buffer in PBS D+) was followed by a 1 h incubation with 1/400 XX-biotin-goat-anti-mouse antibody in dilution buffer, followed by a 1 h incubation with 1/400 streptavidin-alexa488 in PBS D+. Nuclei were stained with 1 μg/mL DAPI in PBS D+ for 10 min and cells were kept in PBS D+ supplemented with NaN3 at 4° C. All steps except the overnight incubation which was carried out at 4° C., were carried out at room temperature and cell cultures were rinsed thoroughly with PBS D+ between all incubation steps. Imaging was performed with an automated BD Pathway 435 imaging system (10× objective, 10×10 montage resulting in an overall image size of 8.5×6.5 mm). We then quantified the number of γ-H2AX-foci positive nuclei in the directly irradiated and bystander areas and expressed the count as a percentage relative to the number of nuclei and subtracted the percentage of background γ-H2AX signal in non-irradiated paired control cultures for each experiment. For counting γ-H2AX foci, images were thresholded to remove background pixel noise below the foci level. Where applicable, results were normalized against vehicle (bar charts with a 100% vehicle bar without statistical variability or a horizontal line).

[2] = test system: TIME cells; test: Cell death, Annexin V and Caspase 3/7 live cell imaging, TIME cells; format: cell-based, human
Protocol: TICAE and TIME cells were seeded in 96 well plates at a density of 10000 cells/well in 8 biological replicates. After three days, cells were at 100% confluence. At 30 minutes before X-ray exposure, cells were refreshed with 200 μl medium supplemented with Caspase 3/7 reagent (1:1000 dilution) and Annexin V reagent (1:200 dilution) (Essen Bioscience, United Kingdom) with or without 100 μM TAT-Gap19 (Genosphere Biotechnologies, Paris, France). Fluorescence signals were measured from 4 h until 100 h after irradiation by imaging every 2 hours using the IncuCyte ZOOM® system (Essen BioScience, Ann Arbor, Mich., USA). Different channels (TRITC, FITC and phase contrast) and a 10× objective were used. Spectral unmixing set as 8% of red removed from green was applied. The IncuCyte software's processing definition was set to recognize red (Annexin V) and green (Caspase 3/7) stained cells, making use of the Top-Hat background subtraction method. Fluorescence signal was normalized to cell count.

[3] = test system: TICAE cells; test: Intracellular ROS, CM-H2DCFDA IncuCyte live cell imaging, TICAE cells; format: cell-based, human; settings: 100 μM TAT-Gap19, 0.1 and 5 Gy, 45 min p.i.
Protocol: In order to further assess intracellular ROS production, IncuCyte live cell imaging was used to have fast imaging in large number of replicates over multiple time points. TICAE and TIME cells were seeded in 96-well plate in 16 replicates at a density of 10000 cells/well. Three days later, cells reached 100% confluence. At 30 minutes before irradiation, a fresh MesoEndo Cell Growth Medium without phenol red (Sigma-Aldrich Co. LCC, Diegem, Belgium) supplemented with 10 μmol/L of the CM-H2DCFDA dye (Sigma-Aldrich Co. LCC, Diegem, Belgium) was added to the cells, with or without 100 μM TAT-Gap19 (Genosphere Biotechnologies, Paris, France). Fluorescence signals were measured at 45 min, 2 h and 3 h after irradiation (CM-H2DCFDA dye became saturated due to photoactivaton, and leaked outside the cells after this time) using the IncuCyte ZOOM® system (Essen BioScience, Ann Arbor, Mich., USA), 10× objective and FITC filter. […] Images were analysed making use of the software package provided by the manufacturer; we used a training set of images from different doses to define the image processing procedure. The so called Top-Hat background subtraction method was applied by measuring the radius of the fluorescence object (30 μm), and adjust a threshold of 1.5 (above the local background fluorescent intensity level), as described in IncuCyte™ Background Fluorescence Technical Note. […]

[4] = test system: non-alcoholic fatty liver mouse model; settings: cited from earlier work
[5] = molecular target: T1, Cx43 hemichannels (Homo sapiens, UniProt P17302); test: Extracellular ATP release after irradiation, TICAE cells; format: cell-based
T1 construct: endogenous in cells; host or cells: TICAE and TIME cells (human endothelial cell lines)
Protocol: Hemichannels are an ATP release pathway and we therefore determined extracellular ATP after irradiation. To that purpose, TICAE and TIME cells were seeded in a 96-well plate at a density of 1×10^5 cells/well and 0.3×10^5 cells/well, respectively, in six to eight biological replicates. Three days later, cells reached 100% confluence. At 30 minutes before irradiation, cells were refreshed with 100 μl medium alone or with medium supplemented with 100 μM TAT-Gap19 (Genosphere Biotechnologies, Paris, France) to block the Cx43 hemichannels. For fractionated irradiation, cells were refreshed with 150 μl medium/well. At different time points after irradiation (1, 6 and 72 h), 1:5 ATP assay mix dissolved in ATP mix dilution buffer (Sigma-Aldrich Co. LCC, Diegem, Belgium) was added to each well. Extracellular ATP release was assessed by measuring the luminescence signal received after oxidation of luciferin and ATP to oxyluciferin and AMP using the CLARIOstar® microplate reader (BMG Labtech, Temse, Belgium). Experiments were corrected for baseline ATP signal in medium in the absence or presence of TAT-Gap19.

T1 sequence (P17302 whole entry): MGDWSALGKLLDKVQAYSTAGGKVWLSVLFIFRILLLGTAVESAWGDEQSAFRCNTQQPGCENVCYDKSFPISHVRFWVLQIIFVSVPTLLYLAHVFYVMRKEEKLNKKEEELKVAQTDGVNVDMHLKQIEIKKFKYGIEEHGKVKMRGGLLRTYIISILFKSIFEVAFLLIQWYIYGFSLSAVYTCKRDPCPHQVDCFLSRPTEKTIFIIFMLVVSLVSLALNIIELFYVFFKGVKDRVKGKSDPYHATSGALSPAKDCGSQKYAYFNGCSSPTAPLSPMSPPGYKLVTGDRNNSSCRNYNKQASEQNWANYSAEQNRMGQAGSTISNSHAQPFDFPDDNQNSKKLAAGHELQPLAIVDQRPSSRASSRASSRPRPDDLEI

In the case of “TAT-Gap19: connexin mimetic peptide, amino-acids 128-136 of the CL of Cx43 (SEQ ID NO: 2), Gap19 linked to TAT sequence; Cx43 hemichannel inhibitor (YGRKKRRQRRRKQIEIKKFK)”, the “γ-H2AX counts in the bystander zone (normalized to vehicle)” value [1] is reported as “significantly inhibited”, the “γ-H2AX counts in the irradiated zone (normalized to vehicle)” value [1] is reported as “significantly inhibited” and the “Annexin V” value ([2]; 100 μM TAT-Gap19, 0 Gy, 12-24 h p.i. time window) is reported as “transiently reduced Annexin V”. The “Annexin V elevation” value ([2]; 100 μM TAT-Gap19, 5 Gy, 4-48 h p.i. time window) was “significantly reduced Annexin V elevation”, the “ROS production (IncuCyte)” value [3] was “significantly reduced ROS production at both doses” and the IL-1B [4] was “significantly decrease”. For the same substance, the TNF-α [4] was “significantly decrease”, the “radiation-induced ATP release” value ([5]; 100 μM TAT-Gap19, fractionated irradiation 0.1 and 5 Gy, 72 h p.i.) was “significantly inhibited the 5 Gy responses only” and the “radiation-induced ATP release” value ([5]; 100 μM TAT-Gap19, single 0.1 and 5 Gy, 1 h p.i.) was “no inhibition was observed”. The “radiation-induced ATP release” value ([5]; 100 μM TAT-Gap19, single 5 Gy, all cases except 1 h p.i. (6 h, 72 h)) was “significantly reduced the ATP release”.
